According to PubChem BioAssay AID248 (DTP/NCI, 2004):
Where “and” joins values, the source holds several entries; their conditions need not be identical. Equal entries are not always repeated. Toxic doses and inconclusive results are not listed. Rule as the data show it: active = T/C of 150% or more; inactive = T/C below 125%.

Tested on: L1210 leukemia ip in BDF1 mice, survival T/C
Assay: NCI In Vivo Anticancer Drug Screen. Data for tumor model L1210 Leukemia (intraperitoneal) in B6D2F1 (BDF1) mice
Details: endpoint: mean survival time, higher = longer survival
How it was run: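 Tumor was transplanted into mice, which were then dosed with test compound or vehicle alone. Survival was recorded for each group, and the treated figure was expressed relative to the control figure.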

[1] = dose: 100.0 mg/kg/injection, schedule: Q04DX003 (ip), vehicle: other
[2] = dose: 200.0 mg/kg/injection, schedule: Q04DX003 (ip), vehicle: other
[3] = dose: 400.0 mg/kg/injection, schedule: Q04DX003 (ip), vehicle: other
[4] = dose: 25.0 mg/kg/injection, schedule: Q04DX002 (ip), vehicle: Klucel (hydroxypropylcellulose) (HPC)
[5] = dose: 50.0 mg/kg/injection, schedule: Q04DX002 (ip), vehicle: Klucel (hydroxypropylcellulose) (HPC)
[6] = dose: 100.0 mg/kg/injection, schedule: Q04DX002 (ip), vehicle: Klucel (hydroxypropylcellulose) (HPC)
[7] = dose: 100.0 mg/kg/injection, schedule: Q04DX003 (ip), vehicle: saline with Tween-80
[8] = dose: 200.0 mg/kg/injection, schedule: Q04DX003 (ip), vehicle: saline with Tween-80
[9] = dose: 400.0 mg/kg/injection, schedule: Q04DX003 (ip), vehicle: saline with Tween-80
[10] = dose: 100.0 mg/kg/injection, schedule: Q01DX009 (ip), vehicle: saline with Tween-80
[11] = dose: 200.0 mg/kg/injection, schedule: Q01DX009 (ip), vehicle: saline with Tween-80
[12] = dose: 100.0 mg/kg/injection, schedule: Q04DX003 (ip), vehicle: Klucel (hydroxypropylcellulose) (HPC)
[13] = dose: 200.0 mg/kg/injection, schedule: Q04DX003 (ip), vehicle: Klucel (hydroxypropylcellulose) (HPC)
[14] = dose: 400.0 mg/kg/injection, schedule: Q04DX003 (ip), vehicle: Klucel (hydroxypropylcellulose) (HPC)

Measured: T/C

Cc1ccc([N+](=O)[O-])cc1[I+]c1ccccc1C(=O)[O-]
inactive: dose: 50.0 mg/kg/injection, schedule: Q01DX001 (ip), vehicle: saline 103 % of control | dose: 100.0 mg/kg/injection, schedule: Q01DX001 (ip), vehicle: saline 106 % of control | dose: 200.0 mg/kg/injection, schedule: Q01DX001 (ip), vehicle: saline 91 % of control | dose: 400.0 mg/kg/injection, schedule: Q01DX001 (ip), vehicle: saline 101 % of control

CCN(CC)S(=O)(=O)c1cccc(C(O)CC(O)(C(F)(F)F)C(F)(F)F)c1 (centres undefined)
inactive: [1] 102 % of control | [2] 100 % of control | [3] 96 % of control

OC/C=C/Cl
inactive: dose: 25.0 mg/kg/injection, schedule: Q01DX001 (ip), vehicle: acetone 106 % of control | dose: 50.0 mg/kg/injection, schedule: Q01DX001 (ip), vehicle: acetone 97 % of control | dose: 100.0 mg/kg/injection, schedule: Q01DX001 (ip), vehicle: acetone 98 % of control

O=S(c1ccccc1)N(OCc1ccccc1)S(=O)c1ccccc1 (centres undefined)
inactive: [4] 98 % of control | [5] 104 % of control | [6] 95 % of control

O=C1C=CC(=O)N1C12CC3CC(CC(C3)C1)C2
inactive: dose: 12.5 mg/kg/injection, schedule: Q04DX002 (ip), vehicle: Klucel (hydroxypropylcellulose) (HPC) 98 % of control | [4] 105 % of control | [5] 94 % of control

CC(C)c1nc(-c2ccccc2)c(-c2ccccc2)[nH]1
inactive: [7] 93 % of control | [8] 98 % of control | [9] 93 % of control

CC1(C)OC(CO)C2OC(C)(C)OC(CO)C2O1 (centres undefined)
inactive: dose: 100.0 mg/kg/injection, schedule: Q01DX001 (ip), vehicle: carboxymethylcellulose (CMC) 98 % of control | dose: 200.0 mg/kg/injection, schedule: Q01DX001 (ip), vehicle: carboxymethylcellulose (CMC) 98 % of control | dose: 400.0 mg/kg/injection, schedule: Q01DX001 (ip), vehicle: carboxymethylcellulose (CMC) 95 % of control

CCCCC#CC(=O)OCCCCC
inactive: [10] 105 % of control | [11] 91 % of control

CCCC(C1=CC(C)(C)c2ccccc2C1=O)c1ccc(Br)cc1 (centres undefined)
inactive: dose: 100.0 mg/kg/injection, schedule: Q01DX009 (ip), vehicle: Klucel (hydroxypropylcellulose) (HPC) 108 % of control | [12] 110 % of control | dose: 200.0 mg/kg/injection, schedule: Q01DX009 (ip), vehicle: Klucel (hydroxypropylcellulose) (HPC) 106 % of control | [13] 113 % of control | dose: 400.0 mg/kg/injection, schedule: Q01DX009 (ip), vehicle: Klucel (hydroxypropylcellulose) (HPC) 103 % of control | [14] 106 % of control

O=C(O)C1C2CC3C(C2)C31 (centres undefined)
inactive: [1] 97 % of control | [2] 98 % of control | [3] 88 % of control

O=C(O)c1nnc(C(=O)O)nn1
inactive: dose: 50.0 mg/kg/injection, schedule: Q01DX009 (ip), vehicle: saline 96 % of control | dose: 100.0 mg/kg/injection, schedule: Q01DX009 (ip), vehicle: saline 102 % of control and 104 % of control | dose: 100.0 mg/kg/injection, schedule: Q04DX003 (ip), vehicle: saline 100 % of control | dose: 200.0 mg/kg/injection, schedule: Q01DX009 (ip), vehicle: saline 100 % of control and 101 % of control | dose: 200.0 mg/kg/injection, schedule: Q04DX003 (ip), vehicle: saline 103 % of control | dose: 400.0 mg/kg/injection, schedule: Q01DX009 (ip), vehicle: saline 96 % of control | dose: 400.0 mg/kg/injection, schedule: Q04DX003 (ip), vehicle: saline 94 % of control

CCOC(=O)NCCc1ccc(OC)c(OC)c1
inactive: [10] 92 % of control | [7] 97 % of control | [11] 91 % of control | [8] 112 % of control | dose: 400.0 mg/kg/injection, schedule: Q01DX009 (ip), vehicle: saline with Tween-80 96 % of control | [9] 102 % of control

NC(=O)CCC(NC(=O)Cc1ccccc1)C(=O)O (centres undefined)
inactive: dose: 18.75 mg/kg/injection, schedule: Q01DX001 (ip), vehicle: Klucel (hydroxypropylcellulose) (HPC) 92 % of control | dose: 37.5 mg/kg/injection, schedule: Q01DX001 (ip), vehicle: Klucel (hydroxypropylcellulose) (HPC) 100 % of control | dose: 75.0 mg/kg/injection, schedule: Q01DX001 (ip), vehicle: Klucel (hydroxypropylcellulose) (HPC) 97 % of control

Cc1ccc([I+]c2ccc(C)c(C)c2)cc1C
inactive: dose: 1.0 mg/kg/injection, schedule: Q01DX001 (ip), vehicle: acetone 102 % of control | dose: 2.0 mg/kg/injection, schedule: Q01DX001 (ip), vehicle: acetone 98 % of control | dose: 4.0 mg/kg/injection, schedule: Q01DX001 (ip), vehicle: acetone 105 % of control | dose: 5.9 mg/kg/injection, schedule: Q01DX001 (ip), vehicle: saline 103 % of control | dose: 9.0 mg/kg/injection, schedule: Q01DX001 (ip), vehicle: saline 97 % of control | dose: 13.0 mg/kg/injection, schedule: Q01DX001 (ip), vehicle: saline 100 % of control | dose: 19.0 mg/kg/injection, schedule: Q01DX001 (ip), vehicle: saline 102 % of control | dose: 29.0 mg/kg/injection, schedule: Q01DX001 (ip), vehicle: saline 101 % of control | dose: 45.0 mg/kg/injection, schedule: Q01DX001 (ip), vehicle: saline 98 % of control | dose: 65.0 mg/kg/injection, schedule: Q01DX001 (ip), vehicle: saline with Tween-80 96 % of control | dose: 100.0 mg/kg/injection, schedule: Q01DX001 (ip), vehicle: saline with Tween-80 97 % of control | dose: 150.0 mg/kg/injection, schedule: Q01DX001 (ip), vehicle: saline with Tween-80 94 % of control | dose: 225.0 mg/kg/injection, schedule: Q01DX001 (ip), vehicle: saline with Tween-80 102 % of control | dose: 340.0 mg/kg/injection, schedule: Q01DX001 (ip), vehicle: saline with Tween-80 96 % of control

CC(=O)CC(=O)C(F)(F)F.CC(=O)CC(=O)C(F)(F)F.CC(=O)CC(=O)C(F)(F)F.CC(=O)CC(=O)C(F)(F)F.[Hf]
inactive: [6] 104 % of control | dose: 200.0 mg/kg/injection, schedule: Q04DX002 (ip), vehicle: Klucel (hydroxypropylcellulose) (HPC) 93 % of control | dose: 400.0 mg/kg/injection, schedule: Q04DX002 (ip), vehicle: Klucel (hydroxypropylcellulose) (HPC) 96 % of control

Cc1noc(NC(=O)Nc2ccc(Cl)cc2Cl)c1C
inactive: dose: 12.5 mg/kg/injection, schedule: Q01DX009 (ip), vehicle: saline with Tween-80 86 % of control | dose: 25.0 mg/kg/injection, schedule: Q01DX009 (ip), vehicle: saline with Tween-80 89 % of control | dose: 50.0 mg/kg/injection, schedule: Q01DX009 (ip), vehicle: saline with Tween-80 91 % of control | [10] 91 % of control | [11] 87 % of control

CN(C)C(=S)Oc1ccc(C(F)(F)F)cc1
inactive: [12] 95 % of control | [13] 93 % of control | [14] 101 % of control

COC1/C=C\OC2(C)Oc3c(C)c(O)c4c(O)c(c(/C=N\OCCCc5ccccc5)c(O)c4c3C2=O)NC(=O)/C(C)=C\C=C/C(C)C(O)C(C)C(O)C(C)C(OC(C)=O)C1C (centres undefined)
inactive: dose: 25.0 mg/kg/injection, schedule: Q04DX003 (ip), vehicle: water 96 % of control | dose: 50.0 mg/kg/injection, schedule: Q04DX003 (ip), vehicle: water 104 % of control | dose: 100.0 mg/kg/injection, schedule: Q04DX003 (ip), vehicle: water 100 % of control | dose: 200.0 mg/kg/injection, schedule: Q04DX003 (ip), vehicle: water 100 % of control

CCCNP(=O)(NCCC)OC1CC(C)(C)N(O)C(C)(C)C1
inactive: dose: 100.0 mg/kg/injection, schedule: Q04DX002 (ip), vehicle: water 90 % of control | dose: 200.0 mg/kg/injection, schedule: Q04DX002 (ip), vehicle: water 87 % of control | dose: 400.0 mg/kg/injection, schedule: Q04DX002 (ip), vehicle: water 97 % of control

Cc1ccc(C(=O)C=Nc2ccc(Br)cc2)cc1
inactive: dose: 100.0 mg/kg/injection, schedule: Q01DX001 (ip), vehicle: Klucel (hydroxypropylcellulose) (HPC) 104 % of control | dose: 200.0 mg/kg/injection, schedule: Q01DX001 (ip), vehicle: Klucel (hydroxypropylcellulose) (HPC) 95 % of control | dose: 400.0 mg/kg/injection, schedule: Q01DX001 (ip), vehicle: Klucel (hydroxypropylcellulose) (HPC) 112 % of control
